US20260193293A1, “PEPTIDES CAPABLE OF INHIBITING PROTEIN-PROTEIN INTERACTIONS AT GABAB1A SUBUNIT AND USES THEREOF” (UNIVERSITY OF COPENHAGEN, priority 2022, published 2026)
Like-named read-outs stand apart in the source and are kept apart here. Non-standard residues stand in square brackets, D forms with d. Residues, ends and D or L forms follow the SMILES beside them. NMeT = CN[C@H](C(=O)O)[C@@H](C)O; NMeD = CN[C@@H](CC(=O)O)C(=O)O; Sar = CNCC(=O)O

Biological target: Sushi domains (SD1/2) protein
Test: Fluorescence polarization (FP) competition assay with AJAP-1probe, calculated Ki
Assay type: binding
Settings: read-out: Ki (nM) mean ± SEM
Procedure, shortened: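 Competition against 25 nM TAMRA-labelled peptide probe binding SD1/2, in PBS pH 7.4 with 1% BSA at rt, read at 530/580 nm. IC50 from sigmoidal dose-response fits, at least triplicate; Ki calculated from IC50 using probe Kd from saturation binding.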

[1] = Table 8, Ala-, D-amino acids and N-methylation scans of AJAP-1WT
[2] = Table 13, peptides for affinity maturation
[3] = Table 6, elongation and truncation scan of PIANP binding epitope
[4] = Table 9, Ala-, D-amino acids and N-methylation scans of PIANPWT

Row | SMILES | Ki [3] [nM] | other results
1 | CC[C@H](C)[C@H](NC(=O)[C@H](Cc1ccccc1)NC(=O)[C@H](CCC(=O)O)NC(=O)[C@@H](NC(=O)[C@H](CCC(=O)O)NC(C)=O)[C@@H](C)O)C(=O)N[C@@H](C)C(=O)N[C@@H](Cc1c[nH]c2ccccc12)C(=O)NCC(=O)N1CCC[C@H]1C(=O)N[C@H](C(=O)N(C)CC(=O)N[C@@H](CC(=O)O)C(=O)N[C@@H](CCC(=O)O)C(=O)N[C@@H](CC(=O)O)C(N)=O)[C@@H](C)O (Ac-ETEFIAWGPT[Sar]DED-NH2) |  | Ki [1]: 132 ± 5 nM
2 | CC[C@H](C)[C@H](NC(=O)[C@H](Cc1ccccc1)NC(=O)[C@H](CCC(=O)O)NC(=O)[C@@H](NC(=O)[C@H](CCC(=O)O)NC(C)=O)[C@@H](C)O)C(=O)N[C@@H](C)C(=O)N[C@@H](Cc1c[nH]c2ccccc12)C(=O)NCC(=O)N1CCC[C@H]1C(=O)N(C)[C@H](C(=O)NCC(=O)N[C@@H](CC(=O)O)C(=O)N[C@@H](CCC(=O)O)C(=O)N[C@@H](CC(=O)O)C(N)=O)[C@@H](C)O (Ac-ETEFIAWGP[NMeT]GDED-NH2) |  | Ki [1]: 77 ± 3 nM
3 | CC[C@H](C)[C@H](NC(=O)[C@H](Cc1ccccc1)NC(=O)[C@H](CCC(=O)O)NC(=O)[C@@H](NC(=O)[C@H](CCC(=O)O)NC(C)=O)[C@@H](C)O)C(=O)N[C@@H](C)C(=O)N[C@@H](Cc1c[nH]c2ccccc12)C(=O)N[C@@H](Cc1ccc(O)cc1)C(=O)NCC(=O)N1CCC[C@H]1C(=O)N[C@@H](C)C(=O)N[C@@H](CC(=O)O)C(=O)N[C@H](C(=O)N[C@@H](CC(=O)O)C(N)=O)[C@@H](C)O (Ac-ETEFIAWYGPADTD-NH2) |  | Ki [2]: 182 ± 2 nM
4 | CC[C@H](C)[C@H](NC(=O)[C@H](Cc1ccccc1)NC(=O)[C@H](CCC(=O)O)NC(=O)[C@@H](NC(=O)[C@H](CCC(=O)O)NC(C)=O)[C@@H](C)O)C(=O)N[C@@H](C)C(=O)N[C@@H](Cc1c[nH]c2ccccc12)C(=O)N[C@@H](Cc1ccc(O)cc1)C(=O)N1CCC[C@H]1C(=O)N[C@@H](C)C(=O)N[C@@H](CC(=O)O)C(=O)N[C@H](C(=O)N[C@@H](CC(=O)O)C(N)=O)[C@@H](C)O (Ac-ETEFIAWYPADTD-NH2) |  | Ki [2]: 190 ± 3 nM
5 | CC(=O)N[C@@H](CCC(=O)O)C(=O)N(C)[C@@H](CC(=O)O)C(=O)N[C@@H](CC(=O)O)C(=O)N[C@@H](CO)C(=O)N[C@@H](CC(=O)O)C(=O)N[C@H](C(=O)N[C@@H](Cc1c[nH]c2ccccc12)C(=O)N[C@@H](Cc1c[nH]c2ccccc12)C(=O)NCC(=O)NCC(=O)N[C@@H](C)C(=O)N[C@@H](CC(=O)O)C(=O)N[C@H](C(=O)N[C@@H](CC(=O)O)C(N)=O)[C@@H](C)O)C(C)C (Ac-E[NMeD]DSDVWWGGADTD-NH2) |  | Ki (Table 7, Ala-, D-amino acids and N-methylation scans of APPWT): 655 ± 24 nM
6 | CC(=O)NCC(=O)NCC(=O)N[C@@H](C)C(=O)N[C@@H](CC(=O)O)C(=O)N[C@H](C(=O)N[C@@H](CC(=O)O)C(=O)N[C@@H](Cc1ccc(O)cc1)C(=O)N[C@@H](C)C(=O)N[C@@H](CC(=O)O)C(N)=O)[C@@H](C)O (Ac-GGADTDYAD-NH2) |  | Ki (Table 4, truncation and elongation scans of APP epitope): > 62500 nM
7 | CC[C@H](C)[C@H](NC(C)=O)C(=O)N[C@H](C(=O)N[C@@H](Cc1c[nH]c2ccccc12)C(=O)NCC(=O)N1CCC[C@H]1C(=O)N[C@H](C(=O)N[C@H](C(=O)N[C@@H](CO)C(=O)N[C@@H](CCCNC(=N)N)C(=O)N[C@@H](CCC(=O)O)C(=O)N[C@@H](CC(=O)O)C(=O)NCC(N)=O)C(C)C)[C@@H](C)O)C(C)C (Ac-IVWGPTVSREDG-NH2) | 15700 ± 210 | 
8 | CC(=O)N[C@@H](CCCCN)C(=O)N[C@@H](CC(=O)O)C(=O)N[C@@H](CC(=O)O)C(=O)N[C@@H](CO)C(=O)N[C@@H](CC(=O)O)C(=O)N[C@H](C(=O)N[C@@H](Cc1c[nH]c2ccccc12)C(=O)N[C@@H](Cc1c[nH]c2ccccc12)C(=O)NCC(=O)NCC(=O)N[C@@H](C)C(=O)N[C@@H](CC(=O)O)C(=O)N[C@H](C(=O)N[C@@H](CC(=O)O)C(N)=O)[C@@H](C)O)C(C)C (Ac-KDDSDVWWGGADTD-NH2) |  | Ki (Table 10, deep mutational scanning validation variants of APPWT): 1520 ± 53 nM
9 | CC[C@H](C)[C@H](NC(=O)[C@H](C)NC(=O)[C@H](Cc1c[nH]c2ccccc12)NC(=O)[C@@H]1CCCN1C(=O)[C@H](Cc1ccc(O)cc1)NC(=O)[C@H](CCC(N)=O)NC(=O)[C@H](CO)NC(=O)[C@H](CO)NC(=O)[C@@H]1CCCN1C(C)=O)C(=O)N[C@H](C(=O)N[C@@H](Cc1c[nH]c2ccccc12)C(=O)NCC(=O)N1CCC[C@H]1C(=O)N[C@H](C(=O)N[C@H](C(=O)N[C@@H](CO)C(=O)N[C@@H](CCCNC(=N)N)C(=O)N[C@@H](CCC(=O)O)C(=O)N[C@@H](CC(=O)O)C(=O)NCC(N)=O)C(C)C)[C@@H](C)O)C(C)C (Ac-PSSQYPWAIVWGPTVSREDG-NH2) | > 62500 | 
10 | CC[C@H](C)[C@H](NC(=O)[C@H](Cc1ccccc1)NC(=O)[C@H](CCC(=O)O)NC(=O)[C@@H](NC(=O)[C@H](CCC(=O)O)NC(=O)[C@@H](NC(=O)[C@@H](NC(=O)[C@@H]1CCCN1C(C)=O)[C@@H](C)O)[C@@H](C)O)[C@@H](C)O)C(=O)N[C@@H](C)C(=O)N[C@@H](Cc1c[nH]c2ccccc12)C(=O)NCC(=O)N1CCC[C@H]1C(=O)N[C@H](C(=O)NCC(=O)N[C@@H](CC(=O)O)C(=O)N[C@@H](CCC(=O)O)C(=O)N[C@@H](CC(=O)O)C(N)=O)[C@@H](C)O (Ac-PTTETEFIAWGPTGDED-NH2) |  | Ki (Table 5, elongation and truncation scan of AJAP-1 binding epitope): 30 ± 0.5 nM
11 | CC[C@H](C)[C@H](NC(=O)[C@H](C)NC(=O)[C@H](Cc1c[nH]c2ccccc12)NC(=O)[C@@H]1CCCN1C(C)=O)C(=O)N[C@H](C(=O)N[C@@H](Cc1c[nH]c2ccccc12)C(=O)NCC(=O)N1CCC[C@H]1C(N)=O)C(C)C (Ac-PWAIVWGP-NH2) | 597 ± 7 | 
12 | CC[C@H](C)[C@H](NC(=O)[C@H](C)NC(=O)[C@H](Cc1c[nH]c2ccccc12)NC(=O)[C@@H]1CCCN1C(C)=O)C(=O)N[C@H](C(=O)N[C@@H](Cc1c[nH]c2ccccc12)C(=O)NCC(=O)N1CCC[C@H]1C(=O)N[C@H](C(N)=O)[C@@H](C)O)C(C)C (Ac-PWAIVWGPT-NH2) | 716 ± 6 | 
13 | CC[C@H](C)[C@H](NC(=O)[C@H](C)NC(=O)[C@H](Cc1c[nH]c2ccccc12)NC(=O)[C@@H]1CCCN1C(C)=O)C(=O)N[C@H](C(=O)N[C@@H](Cc1c[nH]c2ccccc12)C(=O)NCC(=O)N1CCC[C@H]1C(=O)N[C@H](C(=O)N[C@H](C(N)=O)C(C)C)[C@@H](C)O)C(C)C (Ac-PWAIVWGPTV-NH2) | 561 ± 21 | 
14 | CC[C@H](C)[C@H](NC(=O)[C@H](C)NC(=O)[C@H](Cc1c[nH]c2ccccc12)NC(=O)[C@@H]1CCCN1C(C)=O)C(=O)N[C@H](C(=O)N[C@@H](Cc1c[nH]c2ccccc12)C(=O)NCC(=O)N1CCC[C@H]1C(=O)N[C@H](C(=O)N[C@H](C(=O)N[C@@H](CO)C(N)=O)C(C)C)[C@@H](C)O)C(C)C (Ac-PWAIVWGPTVS-NH2) | 463 ± 10 | 
15 | CC[C@H](C)[C@H](NC(=O)[C@H](C)NC(=O)[C@H](Cc1c[nH]c2ccccc12)NC(=O)[C@@H]1CCCN1C(C)=O)C(=O)N[C@H](C(=O)N[C@@H](Cc1c[nH]c2ccccc12)C(=O)NCC(=O)N1CCC[C@H]1C(=O)N[C@H](C(=O)N[C@H](C(=O)N[C@@H](CO)C(=O)N[C@@H](CCCNC(=N)N)C(N)=O)C(C)C)[C@@H](C)O)C(C)C (Ac-PWAIVWGPTVSR-NH2) | 433 ± 2 | 
16 | CC[C@H](C)[C@H](NC(=O)[C@H](C)NC(=O)[C@H](Cc1c[nH]c2ccccc12)NC(=O)[C@@H]1CCCN1C(C)=O)C(=O)N[C@H](C(=O)N[C@@H](Cc1c[nH]c2ccccc12)C(=O)NCC(=O)N1CCC[C@H]1C(=O)N[C@H](C(=O)N[C@H](C(=O)N[C@@H](CO)C(=O)N[C@@H](CCCNC(=N)N)C(=O)N[C@@H](C)C(=O)N[C@@H](CC(=O)O)C(N)=O)C(C)C)[C@@H](C)O)C(C)C (Ac-PWAIVWGPTVSRAD-NH2) |  | Ki [4]: 600 ± 22 nM
17 | CC[C@H](C)[C@H](NC(=O)[C@H](C)NC(=O)[C@H](Cc1c[nH]c2ccccc12)NC(=O)[C@@H]1CCCN1C(C)=O)C(=O)N[C@H](C(=O)N[C@@H](Cc1c[nH]c2ccccc12)C(=O)NCC(=O)N1CCC[C@H]1C(=O)N[C@H](C(=O)N[C@H](C(=O)N[C@@H](CO)C(=O)N[C@@H](CCCNC(=N)N)C(=O)N[C@@H](CCC(=O)O)C(N)=O)C(C)C)[C@@H](C)O)C(C)C (Ac-PWAIVWGPTVSRE-NH2) | 650 ± 9 | 
18 | CC[C@H](C)[C@H](NC(=O)[C@H](C)NC(=O)[C@H](Cc1c[nH]c2ccccc12)NC(=O)[C@@H]1CCCN1C(C)=O)C(=O)N[C@H](C(=O)N[C@@H](Cc1c[nH]c2ccccc12)C(=O)NCC(=O)N1CCC[C@H]1C(=O)N[C@H](C(=O)N[C@H](C(=O)N[C@@H](CO)C(=O)N[C@@H](CCCNC(=N)N)C(=O)N[C@@H](CCC(=O)O)C(=O)N[C@@H](C)C(N)=O)C(C)C)[C@@H](C)O)C(C)C (Ac-PWAIVWGPTVSREA-NH2) |  | Ki [4]: 572 ± 9 nM
19 | CC[C@H](C)[C@H](NC(=O)[C@H](C)NC(=O)[C@H](Cc1c[nH]c2ccccc12)NC(=O)[C@@H]1CCCN1C(C)=O)C(=O)N[C@H](C(=O)N[C@@H](Cc1c[nH]c2ccccc12)C(=O)NCC(=O)N1CCC[C@H]1C(=O)N[C@H](C(=O)N[C@H](C(=O)N[C@@H](CO)C(=O)N[C@@H](CCCNC(=N)N)C(=O)N[C@@H](CCC(=O)O)C(=O)N[C@@H](CC(=O)O)C(=O)NCC(=O)NCC(N)=O)C(C)C)[C@@H](C)O)C(C)C (Ac-PWAIVWGPTVSREDGG-NH2) | 561 ± 21 | 
20 | CC[C@H](C)[C@H](NC(=O)[C@H](C)NC(=O)[C@H](Cc1c[nH]c2ccccc12)NC(=O)[C@@H]1CCCN1C(C)=O)C(=O)N[C@H](C(=O)N[C@@H](Cc1c[nH]c2ccccc12)C(=O)NCC(=O)N1CCC[C@H]1C(=O)N[C@H](C(=O)N[C@H](C(=O)N[C@@H](CO)C(=O)N[C@@H](CCCNC(=N)N)C(=O)N[C@@H](CCC(=O)O)C(=O)N[C@@H](CC(=O)O)C(=O)NCC(=O)NCC(=O)N[C@@H](CC(=O)O)C(N)=O)C(C)C)[C@@H](C)O)C(C)C (Ac-PWAIVWGPTVSREDGGD-NH2) | 716 ± 6 | 
